Measured values: patent US10668040B2, “Treatment of urea cycle disorders in neonates and infants” (Horizon Therapeutics, LLC, priority 2017, dated 2020)

System: UCD patients
Assay: Example 3: TEAEs, serious and non-serious adverse events
Assay type: in vivo
Source text: Sixteen newborn infants aged 0 to 27 days, and 10 infants and toddlers aged 28 days to 23 months received RAVICTI Oral Liquid administered just prior to breastfeeding or intake of formula or food. The recommended dosing regimen was 3-6 times per day depending on feeding schedule.
Number of Subjects with Treatment-Emergent Adverse Events (TEAEs), Serious TEAEs, Deaths, and Discontinuations Due to TEAEs
An adverse event (AE) is any untoward medical occurrence, whether or not the event is considered related to the study drug. A serious AE is any AE that: results in death; is life threatening; requires hospitalization or prolongation of existing hospitalization; results in disability/incapacity; is a congenital anomaly/birth defect; is an important medical event. TEAEs are defined as AEs with an onset date on or after the first dose of study medication until study discontinuation. The Investigator assessed the causal relationship of each TEAE to the study drug as not related, possibly related, or probably related. From the first dose of study treatment through 30 days after the final dose (mean [SD] duration of treatment was 9.13 [6.838] months).

[1] = Non-serious adverse events, Age 0 to <2 Months
[2] = Non-serious adverse events, Age 2 Months to <2 Years
[3] = aged 0 to 2 months, 16 analyzed
[4] = aged 2 months and up to 2 years, 10 analyzed

SMILES: O=C(CCCc1ccccc1)OCC(COC(=O)CCCc1ccccc1)OC(=O)CCCc1ccccc1 [RAVICTI, benzenebutanoic acid, 1′,1″-(1,2,3-propanetriyl) ester]
- Irritability, Occurrences (all) [1]: 1
- Lethargy, Occurrences (all) [1]: 1
- Leukocytosis, Occurrences (all) [1]: 1
- Lower respiratory tract infection, Occurrences (all) [1]: 1
- Lymphocytosis, Occurrences (all) [1]: 1
- Medical device site haemorrhage, Occurrences (all) [1]: 1
- Metabolic acidosis, Occurrences (all) [1]: 2
- Microcytic anaemia, Occurrences (all) [1]: 1
- Musculoskeletal and connective tissue Disorders (Torticollis), Occurrences (all) [1]: 1
- Nail ridging, Occurrences (all) [1]: 0
- Nasal congestion, Occurrences (all) [1]: 2
- Nasopharyngitis, Occurrences (all) [1]: 7
- Nephrolithiasis, Occurrences (all) [1]: 1
- Neutropenia, Occurrences (all) [1]: 1
- Ocular hyperaemia, Occurrences (all) [1]: 1
- Oral candidiasis, Occurrences (all) [1]: 2
- Oropharyngeal pain, Occurrences (all) [1]: 2
- Otitis media acute, Occurrences (all) [1]: 1
- Otitis media, Occurrences (all) [1]: 1
- Pharyngitis, Occurrences (all) [1]: 0
- Plagiocephaly, Occurrences (all) [1]: 2
- Platelet count increased, Occurrences (all) [1]: 1
- Pneumonia, Occurrences (all) [1]: 0
- Pneumothorax, Occurrences (all) [1]: 1
- Post-tussive vomiting, Occurrences (all) [1]: 1
- Protein deficiency, Occurrences (all) [1]: 2
- Pyrexia, Occurrences (all) [1]: 3
- Rash, Occurrences (all) [1]: 6
- Red man syndrome, Occurrences (all) [1]: 1
- Respiratory disorder, Occurrences (all) [1]: 0
- Respiratory syncytial virus infection, Occurrences (all) [1]: 1
- Rhinorrhoea, Occurrences (all) [1]: 0
- Rhinovirus infection, Occurrences (all) [1]: 1
- Seborrhoeic dermatitis, Occurrences (all) [1]: 2
- Sinusitis, Occurrences (all) [1]: 1
- Stoma site reaction, Occurrences (all) [1]: 1
- Tachypnoea, Occurrences (all) [1]: 1
- Teething, Occurrences (all) [1]: 3
- Thrombocytopenia, Occurrences (all) [1]: 2
- Thrombocytosis, Occurrences (all) [1]: 2
- Tibia fracture, Occurrences (all) [1]: 0
- Transaminases increased, Occurrences (all) [1]: 1
- Tremor, Occurrences (all) [1]: 1
- Upper respiratory tract infection, Occurrences (all) [1]: 7
- Urinary tract infection, Occurrences (all) [1]: 2
- Use of accessory respiratory muscles, Occurrences (all) [1]: 1
- Vascular disorders (Venous thrombosis limb), Occurrences (all) [1]: 0
- Vesicoureteric reflux, Occurrences (all) [1]: 0
- Viral infection, Occurrences (all) [1]: 1
- Vomiting, Occurrences (all) [1]: 12
- Weight decreased, Occurrences (all) [1]: 1
- Agitation, Occurrences (all) [2]: 0
- Alanine aminotransferase increased, Occurrences (all) [2]: 0
- Amino acid level decreased, Occurrences (all) [2]: 1
- Amino acid level increased, Occurrences (all) [2]: 0
- Ammonia increased, Occurrences (all) [2]: 1
- Anaemia, Occurrences (all) [2]: 1
- Angular cheilitis, Occurrences (all) [2]: 0
- Anion gap increased, Occurrences (all) [2]: 0
- Apnoea, Occurrences (all) [2]: 1
- Arthropod bite, Occurrences (all) [2]: 0
- Aspartate aminotransferase increased, Occurrences (all) [2]: 0
- Blood bicarbonate decreased, Occurrences (all) [2]: 0
- Blood urea decreased, Occurrences (all) [2]: 0
- Body height below normal, Occurrences (all) [2]: 0
- Candida infection, Occurrences (all) [2]: 0
- Carbon dioxide decreased, Occurrences (all) [2]: 1
- Cardiac disorders (Tachycardia), Occurrences (all) [2]: 0
- Catheter site rash, Occurrences (all) [2]: 0
- Conjunctivitis, Occurrences (all) [2]: 1
- Constipation, Occurrences (all) [2]: 2
- Cough, Occurrences (all) [2]: 2
- Croup infectious, Occurrences (all) [2]: 1
- Dacryostenosis congenital, Occurrences (all) [2]: 1
- Decreased appetite, Occurrences (all) [2]: 0
- Dehydration, Occurrences (all) [2]: 0
- Dermatitis diaper, Occurrences (all) [2]: 1
- Device occlusion, Occurrences (all) [2]: 0
- Diarrhoea, Occurrences (all) [2]: 1
- Drug withdrawal syndrome, Occurrences (all) [2]: 0
- Dysphagia, Occurrences (all) [2]: 0
- Ear and labyrinth disorders (Excessive cerumen production), Occurrences (all) [2]: 1
- Ear infection, Occurrences (all) [2]: 0
- Eczema, Occurrences (all) [2]: 1
- Eye discharge, Occurrences (all) [2]: 0
- Feeding disorder of infancy or early childhood, Occurrences (all) [2]: 0
- Flatulence, Occurrences (all) [2]: 0
- Gamma-glutamyltransferase increased, Occurrences (all) [2]: 0
- Gastroenteritis, Occurrences (all) [2]: 2
- Gastrointestinal viral infection, Occurrences (all) [2]: 0
- Gastrooesophageal reflux disease, Occurrences (all) [2]: 0
- Gross motor delay, Occurrences (all) [2]: 1
- Hepatic enzyme increased, Occurrences (all) [2]: 0
- Hepatobiliary disorders (Hepatic calcification), Occurrences (all) [2]: 0
- Hyperammonaemia, Occurrences (all) [2]: 0
- Hypophagia, Occurrences (all) [2]: 3
- Immune System Disorders (Seasonal allergy), Occurrences (all) [2]: 1
- Irritability, Occurrences (all) [2]: 0
- Lethargy, Occurrences (all) [2]: 0
- Leukocytosis, Occurrences (all) [2]: 0
- Lower respiratory tract infection, Occurrences (all) [2]: 0
- Lymphocytosis, Occurrences (all) [2]: 0
- Medical device site haemorrhage, Occurrences (all) [2]: 0
- Metabolic acidosis, Occurrences (all) [2]: 2
- Microcytic anaemia, Occurrences (all) [2]: 0
- Musculoskeletal and connective tissue Disorders (Torticollis), Occurrences (all) [2]: 0
- Nail ridging, Occurrences (all) [2]: 1
- Nasal congestion, Occurrences (all) [2]: 1
- Nasopharyngitis, Occurrences (all) [2]: 2
- Nephrolithiasis, Occurrences (all) [2]: 0
- Neutropenia, Occurrences (all) [2]: 0
- Ocular hyperaemia, Occurrences (all) [2]: 0
- Oral candidiasis, Occurrences (all) [2]: 0
- Oropharyngeal pain, Occurrences (all) [2]: 0
- Otitis media acute, Occurrences (all) [2]: 0
- Otitis media, Occurrences (all) [2]: 2
- Pharyngitis, Occurrences (all) [2]: 1
- Plagiocephaly, Occurrences (all) [2]: 0
- Platelet count increased, Occurrences (all) [2]: 0
- Pneumonia, Occurrences (all) [2]: 1
- Pneumothorax, Occurrences (all) [2]: 0
- Post-tussive vomiting, Occurrences (all) [2]: 0
- Protein deficiency, Occurrences (all) [2]: 0
- Pyrexia, Occurrences (all) [2]: 2
- Rash, Occurrences (all) [2]: 3
- Red man syndrome, Occurrences (all) [2]: 0
- Respiratory disorder, Occurrences (all) [2]: 1
- Rhinorrhoea, Occurrences (all) [2]: 1
- Seborrhoeic dermatitis, Occurrences (all) [2]: 1
- Sinusitis, Occurrences (all) [2]: 2
- Stoma site reaction, Occurrences (all) [2]: 1
- Tachypnoea, Occurrences (all) [2]: 0
- Teething, Occurrences (all) [2]: 1
- Thrombocytopenia, Occurrences (all) [2]: 0
- Thrombocytosis, Occurrences (all) [2]: 0
- Tibia fracture, Occurrences (all) [2]: 1
- Transaminases increased, Occurrences (all) [2]: 0
- Tremor, Occurrences (all) [2]: 0
- Upper respiratory tract infection, Occurrences (all) [2]: 6
- Urinary tract infection, Occurrences (all) [2]: 1
- Use of accessory respiratory muscles, Occurrences (all) [2]: 0
- Vascular disorders (Venous thrombosis limb), Occurrences (all) [2]: 2
- Vesicoureteric reflux, Occurrences (all) [2]: 1
- Viral infection, Occurrences (all) [2]: 1
- Vomiting, Occurrences (all) [2]: 5
- Weight decreased, Occurrences (all) [2]: 0
- Subjects with TEAE leading to study discontinuation [3]: one
- Subjects with fatal outcome TEAE [3]: no fatal outcome TEAEs
- Subjects with one or more TEAE [3]: 16 subjects
- Subjects with one or more related TEAE [3]: Ten
- Subjects with one or more serious TEAE [3]: 11 subjects
- Subjects with serious related TEAEs [3]: no subjects
- Subjects with TEAE leading to study discontinuation [4]: one
- Subjects with fatal outcome TEAE [4]: One
- Subjects with one or more TEAE [4]: 10 subjects
- Subjects with one or more related TEAE [4]: Four
- Subjects with one or more serious TEAE [4]: 6 subjects
- Subjects with serious related TEAEs [4]: no subjects
- Respiratory syncytial virus infection, Occurrences (all) (in vivo): 0
- Respiratory syncytial virus infection, Subjects Affected/Exposed (in vivo): 0/10 (0.00%)
- Rhinovirus infection, Occurrences (all) (in vivo): 0
- Rhinovirus infection, Subjects Affected/Exposed (in vivo): 0/10 (0.00%)
- Serious AE Respiratory syncytial virus infection: Occurrences causally related to treatment/all (in vivo): 0/0
- Serious AE Respiratory syncytial virus infection: Subjects Affected/Exposed (in vivo): 0/10 (0.00%)
- Serious AE Rhinovirus infection: Occurrences causally related to treatment/all (in vivo): 0/1
- Serious AE Rhinovirus infection: Subjects Affected/Exposed (in vivo): 1/10 (10.00%)
